# Test results: patent publication US5686607A, “Pyridyl ethylation of lactam derivatives” (Merck & Co., Inc., priority 1996, dated 1997)
# Test system: ADP-stimulated platelets
# Assay: ADP-stimulated platelet aggregation assay (gel-filtered human platelets)
# Format: cell-based
# Details: ADP-stimulated gel-filtered human platelets (2×10^8 per ml), fibrinogen 100 ug/ml, Ca^2+ 1 mM, 10 mM ADP, 37° C., read-out: IC50 (inhibition of aggregation by 50% relative to a control)
# Source text: The activity of these fibrinogen receptor antagonists is illustrated below. One test used to evaluate fibrinogen receptor antagonist activity is based on evaluation of inhibition of ADP-stimulated platelets. Aggregation requires that fibrinogen bind to and occupy the platelet fibrinogen receptor site. Inhibitors of fibrinogen binding inhibit aggregation. In the ADP-stimulated platelet aggregation assay used to determine inhibition associated with these fibrinogen receptor antagonists, human platelets are isolated from fresh blood, collected into acid citrate/dextrose by differential centrifugation followed by gel filtration on Sepharose 2B in divalent ion-free Tyrode's buffer (pH 7.4) containing 2% bovine serum albumin.
# Platelet aggregation is measured at 37° C. in a Chronolog aggregometer. The reaction mixture contains gel-filtered human platelets (2×10^8 per ml), fibrinogen (100 micrograms per ml (ug/ml)), Ca^2+ (1 mM), and the fibrinogen receptor antagonists tested. The aggregation is initiated by adding 10 mM ADP 1 minute after the other components are added. The reaction is then allowed to proceed for at least 2 minutes. The extent of inhibition of aggregation is expressed as the percentage of the rate of aggregation observed in the absence of inhibitor. The IC50 is the dose of a particular compound inhibiting aggregation by 50% relative to a control lacking the compound. […]
structure (smiles),measurement,value
C[C@H](CC(=O)O)NC(=O)CN1CCCC(CCC2CCNCC2)C1=O (stereo partly shown),IC50,100 µM
